No end group written: not given here.

In test [1] the test system is Gram-positive and Gram-negative bacteria. The settings on record: cited from earlier work. The text has this: Mammalian LEAP-2 is a single gene, which is mainly expressed by the liver, and to a certain extent by other tissues ([18]). For example, mouse LEAP-2 is mainly expressed in the liver and small intestine ([18]). […] Therefore, LEAP-2 may have other physiological functions besides sterilization. However, unlike mammals with a single LEAP-2 ...

The next test relates to V. fluvialis WY91-24-3. Description: Bacterial membrane permeability assay (PI influx, flow cytometry). The test is classed as cell-based, Vibrio fluvialis. The settings on record: peptide 8 μM, 10 mM NaPB pH 7.4, 37°C, 1 h; PI 9 μM; flow cytometry, 3,000 events; representative of three independent experiments. The procedure: The membrane permeability of bacteria after the treatment of peptides was assessed by flow cytometry as previously described ([33]) with minor modifications. In brief, V. fluvialis WY91-24-3 were cultured to mid-logarithmic phase, then washed twice and resuspended to 10^6 CFU/ml with 10 mM NaPB (pH 7.4). Thereafter, 40 μl of peptides diluted in NaPB was added to 160 μl of V. fluvialis to give a final concentration of 8 μM. LL37 and NaPB was used as the positive and negative control, respectively. After being incubated at 37°C for 1 h, propidium iodide (PI; Sigma-Aldrich) was added to the bacterial suspension at a final concentration of 9 μM. The PI positive bacterial cells were detected using the flow cytometer FACSVerse (BD Biosciences) at 3,000 events and the data were analyzed using the FlowJo software v10 (Tree Star).
Figure 6 Antibacterial mechanisms of LEAPs. (A–J) Membrane permeability of V. fluvialis treated with LEAPs. The bacteria were incubated with LEAPs (8 μM) at 37°C for 1 h, and a bacterial suspension without peptide was included as a control (Ctrl). Then PI (9 μM) was added and the influx of PI was detected by flow cytometry. Data are representative results of three independent experiments. (K) The data in (A–J) were analyzed statistically. The p value was calculated by one-way ANOVA with a Dunnett post hoc test. Different letters indicate significant differences (p<0.05). […]
On the technique in general: Flow cytometry measures light scatter and fluorescence of single cells or particles in a stream.

For the substance “mature peptide 38-77 of human LEAP-2: mature peptide 38-77 of human LEAP-2 (MTPFWRGVSLRPIGASCRDDSECITRLCRKRRCSLSVAQE; ends and bridges not checked; cysteine pairing not given here; UniProt Q969E1 38-77, looked up)”, the antibacterial activity entry in test [1] is on record as “different killing effects”. For the substance “LL-37: human AMP LL-37, positive control of the membrane permeability assay (LLGDFFRKSKEKIGKEFKRIVQRIKDFLRNLVPRTES; Antibacterial peptide LL-37; UniProt P49913 134-170, looked up)”, the “PI positive bacterial cells” value with V. fluvialis WY91-24-3 was 85.2%. Turning to “cleaved form 44-77: cleaved form 44-77 of human LEAP-2 (GVSLRPIGASCRDDSECITRLCRKRRCSLSVAQE; ends and bridges not checked; cysteine pairing not given here; UniProt Q969E1 44-77, looked up, fragment)”, the antibacterial activity entry in test [1] is listed as “loses antibacterial activity”.

Values taken from article PMC9986249, “Comparative study on antibacterial characteristics of the multiple liver expressed antimicrobial peptides (LEAPs) in teleost fish” (Frontiers in Immunology, 2023).
